Structures can show the parent of a compound that is named as a salt. ± gives the standard error.
Columns and labels:
621-102 (TSC2-deficient) = experiment: relative viability vs DMSO; higher = less cytotoxic; conditions: serum: 10% FBS, 72 h
621-103 (TSC2-rescued) = experiment: as above; conditions: serum: 10% FBS, 72 h
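Also: immortalized renal angiomyolipoma cells stably carrying empty vector or TSC2, dosed in 384-well plates in DMEM, viability normalized to vehicle-treated wells within each plate.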

SMILES | relative viability (621-102 (TSC2-deficient); 0.0001 µM) | relative viability (621-102 (TSC2-deficient); 0.001 µM) | relative viability (621-102 (TSC2-deficient); 0.01 µM) | relative viability (621-102 (TSC2-deficient); 0.1 µM) | relative viability (621-102 (TSC2-deficient); 1 µM) | relative viability (621-102 (TSC2-deficient); 10 µM) | relative viability (621-103 (TSC2-rescued); 0.0001 µM) | relative viability (621-103 (TSC2-rescued); 0.001 µM) | relative viability (621-103 (TSC2-rescued); 0.01 µM) | relative viability (621-103 (TSC2-rescued); 0.1 µM) | relative viability (621-103 (TSC2-rescued); 1 µM) | relative viability (621-103 (TSC2-rescued); 10 µM)
NCCc1ccc(O)c(O)c1 [Dopamine HCl] | 97.5 ± 9.6% | 112 ± 3.6% | 107 ± 3% | 105 ± 2.4% | 89.7 ± 7.8% | 74.1 ± 1.9% | 102.3 ± 0.35% | 99.6 ± 4.5% | 99 ± 1.9% | 100.1 ± 1% | 92.8 ± 2% | 95.4 ± 3.1%
OCCn1cc(-c2cnc3nnn(Cc4ccc5ncccc5c4)c3n2)cn1 | 103 ± 2.2% | 98.7 ± 1.2% | 89.7 ± 2.1% | 100 ± 3.4% | 96 ± 2.5% | 93.2 ± 1.2% | 104.7 ± 0.61% | 102 ± 0.94% | 101.9 ± 0.21% | 103 ± 1.6% | 103.2 ± 0.56% | 99.7 ± 2.3%
COc1nc(C)cnc1NS(=O)(=O)c1cccnc1-c1ccc(-c2nnco2)cc1 [Zibotentan (ZD4054)] | 118 ± 2.6% | 100 ± 3.1% | 109.9 ± 0.58% | 114 ± 2.4% | 105 ± 3.6% | 120 ± 1.6% | 103.31 ± 0.00057% | 99.8 ± 1.5% | 100.2 ± 0.14% | 100.5 ± 0.75% | 101 ± 1% | 102.5 ± 0.2%
Nc1nc(F)nc2c1ncn2[C@@H]1O[C@H](COP(=O)(O)O)[C@@H](O)[C@@H]1O [Fludarabine Phosphate] | 98.1 ± 1.6% | 105 ± 1.1% | 101.7 ± 0.47% | 106 ± 1.9% | 96.4 ± 7.2% | 94 ± 1.7% | 104 ± 2.1% | 104 ± 2.7% | 103.3 ± 0.34% | 102.6 ± 0.82% | 100 ± 1.7% | 89.1 ± 6.1%
O=C(O)Cc1cccc(OCCCN(Cc2cccc(C(F)(F)F)c2Cl)CC(c2ccccc2)c2ccccc2)c1 [GW3965] | 89.3 ± 0.92% | 88.7 ± 4% | 86.8 ± 4.3% | 86.31 ± 0.36% | 77.5 ± 4% | 86.9 ± 5.4% | 107 ± 1.3% | 108 ± 3.5% | 110.7 ± 1% | 106 ± 4.5% | 99.6 ± 5.4% | 101 ± 3.5%
O=C(c1ccc(F)cc1)C1CCN(CCn2c(=O)[nH]c3ccccc3c2=O)CC1 [Ketanserin (Vulketan Gel)] | 89 ± 2.5% | 103 ± 2.1% | 98.4 ± 2% | 103.9 ± 0.64% | 92.4 ± 3.8% | 88.1 ± 1.1% | 113.6 ± 1.1% | 103 ± 2.4% | 102.89 ± 0.072% | 105.8 ± 0.41% | 107 ± 1.4% | 96.3 ± 1%
CNCc1ccc(-c2[nH]c3cc(F)cc4c3c2CCNC4=O)cc1 | 130 ± 2.7% | 109 ± 3.2% | 128 ± 4.3% | 126 ± 4% | 120 ± 1.7% | 98.5 ± 1.6% | 104 ± 1.2% | 104 ± 1.1% | 104.8 ± 0.35% | 107.6 ± 0.23% | 111 ± 1.2% | 88 ± 1.9%
COc1cc2c(cc1OC)C(=O)C(CC1CCN(Cc3ccccc3)CC1)C2 (stereo not drawn) [Donepezil HCl] | 96.2 ± 3.9% | 108 ± 4.1% | 103.6 ± 0.26% | 111 ± 1.3% | 101.6 ± 0.44% | 86.8 ± 1.3% | 93.1 ± 3% | 105 ± 2.5% | 102 ± 4.3% | 106 ± 1.8% | 104 ± 3.4% | 93.21 ± 0.93%
CO/N=C(\C(=O)N[C@@H]1C(=O)N2C(C(=O)O)=C(CSC(=O)c3ccco3)CS[C@H]12)c1csc(N)n1 [Ceftiofur HCl] | 116 ± 6.8% | 112.1 ± 0.33% | 123 ± 2% | 117 ± 5.6% | 116 ± 2% | 110 ± 1.9% | 98.6 ± 4.3% | 99.23 ± 0.84% | 94.4 ± 3% | 97.5 ± 5.2% | 94.3 ± 1.6% | 94.2 ± 3.3%
COc1ccc(-c2oc3c(CC=C(C)C)c(O[C@@H]4O[C@H](CO)[C@@H](O)[C@H](O)[C@H]4O)cc(O)c3c(=O)c2O[C@@H]2O[C@@H](C)[C@H](O)[C@@H](O)[C@H]2O)cc1 [Icariin] | 93.6 ± 10% | 92.7 ± 2.9% | 89.44 ± 0.27% | 102 ± 5.1% | 87.9 ± 11% | 80.99 ± 0.32% | 116 ± 1.2% | 105 ± 3.3% | 109 ± 1.2% | 101 ± 1.4% | 98.3 ± 5.3% | 116 ± 3.7%
CN(CCOc1ccc(CC2SC(=O)NC2=O)cc1)c1ccccn1 (stereo not drawn) [Rosiglitazone (Avandia)] | 112.8 ± 0.24% | 102 ± 8.2% | 99.4 ± 1% | 101 ± 3% | 102 ± 1.4% | 89.188 ± 0.073% | 97.1 ± 3.3% | 105 ± 2.9% | 102 ± 2.3% | 101 ± 3.8% | 105.9 ± 0.89% | 105 ± 1.4%
C[C@H](NC(=O)Cc1cc(F)cc(F)c1)C(=O)N[C@H](C(=O)OC(C)(C)C)c1ccccc1 [DAPT (GSI-IX)] | 104 ± 4.3% | 99.1 ± 1.5% | 100 ± 2.3% | 97.82 ± 0.41% | 97.7 ± 4.1% | 97.1 ± 5.9% | 94.6 ± 6.5% | 105.2 ± 0.68% | 103.7 ± 0.49% | 101.4 ± 0.89% | 97.2 ± 2.8% | 98.2 ± 1.4%
COc1cc(OC)c(OC)cc1C=O [Asaraldehyde] | 112 ± 3.5% | 116.4 ± 0.26% | 109.6 ± 0.37% | 96.2 ± 1.4% | 113.4 ± 0.62% | 92.3 ± 1.9% | 101 ± 2% | 103 ± 2% | 94.8 ± 1.3% | 99.98 ± 0.77% | 102.5 ± 0.13% | 96.06 ± 0.3%
O=C(Nc1cccc(Cl)c1)Nc1ncc(CCNc2ncnc3ccsc23)s1 [SNS-314 Mesylate] | 107 ± 3% | 85.4 ± 1.4% | 83.06 ± 0.37% | 65.9 ± 0.75% | 79.5 ± 4.8% | 67.3 ± 1.1% | 102.7 ± 0.28% | 104 ± 1.1% | 98.4 ± 1.1% | 93.6 ± 1.6% | 89.5 ± 1.7% | 77.2 ± 2.1%
FC(F)(F)c1ccc(Nc2nc3ccc(Oc4ccnc(-c5ncc(C(F)(F)F)[nH]5)c4)cc3[nH]2)cc1 [Raf265 derivative] | 113.2 ± 0.3% | 94.5 ± 1.8% | 106.8 ± 0.2% | 112 ± 4.1% | 102 ± 6.6% | 72.52 ± 0.56% | 110 ± 2.7% | 108 ± 6.7% | 94.7 ± 5% | 103 ± 5.7% | 101 ± 4.6% | 73.2 ± 7%
COc1ccccc1N1CCN(CCN(C(=O)C2CCCCC2)c2ccccn2)CC1 | 108 ± 0.74% | 102.3 ± 0.41% | 100 ± 1.5% | 104.2 ± 0.32% | 97.19 ± 0.27% | 99.4 ± 1% | 102.1 ± 1% | 99 ± 5.8% | 99.5 ± 5.7% | 110 ± 1.8% | 108 ± 1.8% | 98.5 ± 2.6%
Cc1ccc(F)c(NC(=O)Nc2ccc(-c3cccc4[nH]nc(N)c34)cc2)c1 [ABT-869] | 106 ± 3% | 100.3 ± 0.6% | 108 ± 1.6% | 108 ± 5.5% | 107 ± 2.2% | 86 ± 1.5% | 97.84 ± 0.17% | 100 ± 1.3% | 108 ± 6.2% | 107 ± 3.4% | 109.7 ± 0.82% | 80.4 ± 3.2%
Cc1cc(NS(=O)(=O)c2ccc(N)cc2)no1 [Sulfamethoxazole] | 105 ± 5.2% | 104 ± 3.8% | 104.66 ± 0.095% | 97.02 ± 0.95% | 101.8 ± 0.93% | 97.2 ± 2% | 96.09 ± 0.3% | 102 ± 2.2% | 101 ± 3.9% | 101 ± 4.7% | 99.4 ± 6% | 101 ± 1.7%
Nc1[nH]cnc2ncnc1-2 [Adenine HCl] | 93.9 ± 2% | 103 ± 0.93% | 97.03 ± 0.37% | 97.386 ± 0.086% | 96.5 ± 6.5% | 110.8 ± 1.1% | 95.5 ± 2.2% | 96.77 ± 0.35% | 92.9 ± 4.8% | 102.9 ± 0.83% | 96.7 ± 2.2% | 120 ± 2.1%

Reference: the supplement of paper PMC8960247
